From patent US11084800B2 (Achillion Pharmaceuticals, Inc., priority 2017, dated 2021)

Molecular target: Human Factor D (Homo sapiens (Human), UniProt P00746)
Test: Human Factor D Assay
Type: biochemical
Conditions: Factor D inhibition, assay of Example 10; read-out: IC5 (Stars)
Outline: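 Serum-purified Factor D (80 nM final) preincubated 5 min at room temperature with compound in 50 mM Tris, 1 M NaCl, pH 7.5. Z-L-Lys-SBz and DTNB added at 100 μM each; A405 followed every 30 s for 30 min. IC50 from nonlinear regression of rates versus concentration.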

Chain of Human Factor D (P00746 26-253): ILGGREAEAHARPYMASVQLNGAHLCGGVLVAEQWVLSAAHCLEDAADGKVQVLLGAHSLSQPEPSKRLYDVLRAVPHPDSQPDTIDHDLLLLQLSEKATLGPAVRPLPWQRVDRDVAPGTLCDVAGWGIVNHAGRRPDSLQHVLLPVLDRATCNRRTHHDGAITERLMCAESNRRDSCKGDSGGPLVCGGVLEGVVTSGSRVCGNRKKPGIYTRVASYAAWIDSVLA

Compound	IC50 [µM]
CCc1nn(CC(=O)N2C[C@H](F)C[C@H]2C(=O)Nc2cccc(Br)n2)c2ccc(-c3cnc(C)nc3)cc12 [Compound 445, (2S,4R)-N-(6-bromopyridin-2-yl)-1-(2-(3-ethyl-5-(2-methylpyrimidin-5-yl)-1H-indazol-1-yl)acetyl)-4-fluoropyrrolidine-2-carboxamide]	1 to 10
CC(=O)c1nn(CC(=O)N2[C@H](C(=O)Nc3nc(Br)c(F)cc3C)C[C@@]3(Cc4nc(C)no4)C[C@@H]23)c2c(C)cc(-c3cnc(C)nc3)cc12 [Compound 424, (1R,3S,5R)-2-(2-(3-acetyl-7-methyl-5-(2-methylpyrimidin-5-yl)-1H-indazol-1-yl)acetyl)-N-(6-bromo-5-fluoro-3-methylpyridin-2-yl)-5-((3-methyl-1,2,4-oxadiazol-5-yl)methyl)-2-azabicyclo[3.1.0]hexane-3-carboxamide]	< 1
CC(=O)c1nn(CC(=O)N2[C@H](C(=O)Nc3cc(CCc4ccccc4)cc(Br)n3)C[C@@]3(C)C[C@@H]23)c2ccc(-c3cnc(C)nc3)cc12 [Compound 548]	< 1
CC(=O)c1nn(CC(=O)N2[C@H](C(=O)NCc3cccc(Cl)c3F)C[C@@]3(Cc4nnc(C)o4)C[C@@H]23)c2c(C)cc(-c3cnc(C)nc3)cc12 [Compound 434, (1R,3S,5R)-2-(2-(3-acetyl-7-methyl-5-(2-methylpyrimidin-5-yl)-1H-indazol-1-yl)acetyl)-N-(3-chloro-2-fluorobenzyl)-5-((5-methyl-1,3,4-oxadiazol-2-yl)methyl)-2-azabicyclo[3.1.0]hexane-3-carboxamide]	< 1
CC(=O)c1nn(CC(=O)N2[C@H]3C[C@@]3(CC#N)C[C@H]2C(=O)Nc2nc(Br)ccc2C)c2cnc(-c3cnc(C)nc3)cc12 [Compound 239, (1S,3S,5S)-2-(2-(3-acetyl-5-(2-methylpyrimidin-5-yl)-1H-pyrazolo[3,4-c]pyridin-1-yl)acetyl)-N-(6-bromo-3-methylpyridin-2-yl)-5-(cyanomethyl)-2-azabicyclo[3.1.0]hexane-3-carboxamide]	1 to 10
CC(=O)c1nn(CC(=O)N2[C@H](C(=O)Nc3nc(Br)ccc3C)C[C@@]3(C)C[C@@H]23)c2ccc(-c3cnc(C)nc3C)cc12 [Compound 331, (1R,3S,5R)-2-(2-(3-acetyl-5-(2,4-dimethylpyrimidin-5-yl)-1H-indazol-1-yl)acetyl)-N-(6-bromo-3-methylpyridin-2-yl)-5-methyl-2-azabicyclo[3.1.0]hexane-3-carboxamide]	< 1
CC(=O)c1nn(CC(=O)N2[C@H](C(=O)Nc3nc(Br)ccc3CN3CCn4c(nnc4C(F)(F)F)C3)C[C@@]3(C)C[C@@H]23)c2ccc(-c3cnc(C)nc3)cc12 [Compound 357, (1R,3S,5R)-2-(2-(3-acetyl-5-(2-methylpyrimidin-5-yl)-1H-indazol-1-yl)acetyl)-N-(6-bromo-3-((3-(trifluoromethyl)-5,6-dihydro-[1,2,4]triazolo[4,3-a]pyrazin-7(8H)-yl)methyl)pyridin-2-yl)-5-methyl-2-azabicyclo[3.1.0]hexane-3-carboxamide]	< 1
COc1ccc(Br)nc1NC(=O)[C@@H]1C[C@@]2(C)C[C@H]2N1C(=O)Cn1nc(C(C)=O)c2cc(-c3cnc(C)nc3)ccc21 [Compound 363, (1R,3S,5R)-2-(2-(3-acetyl-5-(2-methylpyrimidin-5-yl)-1H-indazol-1-yl)acetyl)-N-(6-bromo-3-methoxypyridin-2-yl)-5-methyl-2-azabicyclo[3.1.0]hexane-3-carboxamide]	< 1
COC(=O)c1cc2c(cc1-c1cnc(C)nc1)c(C(C)=O)nn2CC(=O)N1[C@H](C(=O)Nc2nc(Br)ccc2C)C[C@@]2(C)C[C@@H]12 [Compound 395, methyl 3-acetyl-1-(2-((1R,3S,5R)-3-((6-bromo-3-methylpyridin-2-yl)carbamoyl)-5-methyl-2-azabicyclo[3.1.0]hexan-2-yl)-2-oxoethyl)-5-(2-methylpyrimidin-5-yl)-1H-indazole-6-carboxylate]	< 1

Same assay, conditions: Table 6; Factor D 80 nM, substrate Z-L-Lys-SBz; read-out: IC50

Compound	IC50 [µM]
CC(=O)c1nn(CC(=O)N2[C@H](C(=O)NCCC(C)(C)C)C[C@@]3(C)C[C@@H]23)c2c(C)cc(-c3cnc(C)nc3)cc12 [Compound 80, (1R,3S,5R)-2-(2-(3-Acetyl-7-methyl-5-(2-methylpyrimidin-5-yl)-1H-indazol-1-yl)acetyl)-N-(3,3-dimethylbutyl)-5-methyl-2-azabicyclo[3.1.0]hexane-3-carboxamide]	< 1
CC(=O)c1nn(CC(=O)N2[C@H](C(=O)Nc3nc(Br)ccc3CN(C)C)C[C@@]3(C)C[C@@H]23)c2c(C)cc(-c3cnc(C)nc3)cc12 [Compound 136, (1R,3S,5R)-2-(2-(3-Acetyl-7-methyl-5-(2-methylpyrimidin-5-yl)-1H-indazol-1-yl)acetyl)-N-(6-bromo-3-((dimethylamino)methyl)pyridin-2-yl)-5-methyl-2-azabicyclo[3.1.0]hexane-3-carboxamide]	< 1
CC(=O)c1nn(CC(=O)N2[C@H](C(=O)Nc3cccc(OC(F)(F)F)c3F)C[C@@]3(C)C[C@@H]23)c2c(C)cc(-c3cnc(C)nc3)cc12 [Compound 33, (1R,3S,5R)-2-(2-(3-Acetyl-7-methyl-5-(2-methylpyrimidin-5-yl)-1H-indazol-1-yl)acetyl)-N-(2-fluoro-3-(trifluoromethoxy)phenyl)-5-methyl-2-azabicyclo[3.1.0]hexane-3-carboxamide]	< 1
CC(=O)c1nn(CC(=O)N2[C@H](C(=O)Nc3nc(Br)ccc3C(C)C)C[C@@]3(C)C[C@@H]23)c2ccc(-c3cnc(C)nc3)cc12 [Compound 14, (1R,3S,5R)-2-(2-(3-Acetyl-5-(2-methylpyrimidin-5-yl)-1H-indazol-1-yl)acetyl)-N-(6-bromo-3-isopropylpyridin-2-yl)-5-methyl-2-azabicyclo[3.1.0]hexane-3-carboxamide]	< 1
CC(=O)c1nn(CC(=O)N2[C@H](C(=O)Nc3nc(Br)ccc3C)C[C@@]3(C)C[C@@H]23)c2c(C)cc(-c3cnc(C)nc3)nc12 [Compound 210, (1R,3S,5R)-2-(2-(3-acetyl-7-methyl-5-(2-methylpyrimidin-5-yl)-1H-pyrazolo[4,3-b]pyridin-1-yl)acetyl)-N-(6-bromo-3-methylpyridin-2-yl)-5-methyl-2-azabicyclo[3.1.0]hexane-3-carboxamide]	> 10
CC(=O)c1nn(CC(=O)N2[C@H](C(=O)Nc3nc(Br)ccc3CN3CCOCC3)C[C@@]3(C)C[C@@H]23)c2cnc(-c3cnc(C)nc3)cc12 [Compound 192, (1R,3S,5R)-2-(2-(3-Acetyl-5-(2-methylpyrimidin-5-yl)-1H-pyrazolo[3,4-c]pyridin-1-yl)acetyl)-N-(6-bromo-3-(morpholinomethyl)pyridin-2-yl)-5-methyl-2-azabicyclo[3.1.0]hexane-3-carboxamide]	< 1
CC(=O)c1nn(CC(=O)N2[C@H](C(=O)Nc3nc(Br)c(F)cc3C)C[C@@]3(C)C[C@@H]23)c2ccc(-c3cnc(C)nc3)nc12 [Compound 185, (1R,3S,5R)-2-(2-(3-Acetyl-5-(2-methylpyrimidin-5-yl)-1H-pyrazolo[4,3-b]pyridin-1-yl)acetyl)-N-(6-bromo-5-fluoro-3-methylpyridin-2-yl)-5-methyl-2-azabicyclo[3.1.0]hexane-3-carboxamide]	1 to 10
CC(=O)c1nn(CC(=O)N2[C@H](C(=O)Nc3nc(Br)ccc3CN3CC(F)(F)C3)C[C@@]3(C)C[C@@H]23)c2ccc(-c3cnc(C)nc3)cc12 [Compound 177, (1R,3S,5R)-2-(2-(3-Acetyl-5-(2-methylpyrimidin-5-yl)-1H-indazol-1-yl)acetyl)-N-(6-bromo-3-((3,3-difluoroazetidin-1-yl)methyl)pyridin-2-yl)-5-methyl-2-azabicyclo[3.1.0]hexane-3-carboxamide]	< 1
CC(=O)c1nn(CC(=O)N2[C@H](C(=O)Nc3nc(Br)c(F)cc3C)C[C@@]3(C)C[C@@H]23)c2ncc(-c3cnc(C)nc3)cc12 [Compound 182, (1R,3S,5R)-2-(2-(3-Acetyl-5-(2-methylpyrimidin-5-yl)-1H-pyrazolo[3,4-b]pyridin-1-yl)acetyl)-N-(6-bromo-5-fluoro-3-methylpyridin-2-yl)-5-methyl-2-azabicyclo[3.1.0]hexane-3-carboxamide]	< 1
CC(=O)c1nn(CC(=O)N2C[C@H](F)C[C@H]2C(=O)Nc2cccc(Br)n2)c2c(CF)cc(-c3cnc(C)nc3)cc12 [Compound 20, (2S,4R)-1-(2-(3-Acetyl-7-(fluoromethyl)-5-(2-methylpyrimidin-5-yl)-1H-indazol-1-yl)acetyl)-N-(6-bromopyridin-2-yl)-4-fluoropyrrolidine-2-carboxamide]	< 1
CC(=O)c1nn(CC(=O)N2[C@H](C(=O)Nc3nc(Br)ccc3C)C[C@@]3(C)C[C@@H]23)c2c(C(F)(F)F)cc(-c3cnc(C)nc3)cc12 [Compound 133, (1R,3S,5R)-2-(2-(3-Acetyl-5-(2-methylpyrimidin-5-yl)-7-(trifluoromethyl)-1H-indazol-1-yl)acetyl)-N-(6-bromo-3-methylpyridin-2-yl)-5-methyl-2-azabicyclo[3.1.0]hexane-3-carboxamide]	< 1

Same assay, conditions: Table 8; Factor D 80 nM, substrate Z-L-Lys-SBz; read-out: IC50

Compound	IC50 [µM]
COC(=O)CCCCCCCCCCCCCCCCC(=O)N[C@@H](CCC(=O)NCCOCCOCC(=O)NCCOCCOCC(=O)NCc1ncc(-c2ccc3c(c2)c(C(C)=O)nn3CC(=O)N2[C@H](C(=O)Nc3nc(Br)ccc3C)C[C@@]3(C)C[C@@H]23)cn1)C(=O)OC [Compound 329]	< 1
CC(=O)c1nn(CC(=O)N2[C@H](C(=O)Nc3nc(Br)ccc3C)C[C@@]3(C)C[C@@H]23)c2ccc(-c3cnc(CNC(=O)COCCOCCNC(=O)COCCOCCNC(=O)CC[C@H](NC(=O)CCCCCCCCCCCCCCCCC(=O)O)C(=O)O)nc3)cc12 [Compound 242]	< 1
CC(=O)c1nn(CC(=O)N2[C@H](C(=O)Nc3nc(Br)ccc3C)C[C@@]3(C)C[C@@H]23)c2c(-c3nn[nH]n3)cc(-c3cnc(C)nc3)cc12 [Compound 236, (1R,3S,5R)-2-(2-(3-acetyl-5-(2-methylpyrimidin-5-yl)-7-(2H-tetrazol-5-yl)-1H-indazol-1-yl)acetyl)-N-(6-bromo-3-methylpyridin-2-yl)-5-methyl-2-azabicyclo[3.1.0]hexane-3-carboxamide]	< 1
